Measured values published in US6387936B1 (Aventis Pharma S.A., priority 1998, dated 2002).
“And” between values parts separate entries of the source, which are not always exact repeats. Equal entries are not always repeated. One block for each molecule: values may come before it.

How the values were obtained:
[1] = system: parkinsonian marmosets (MPTP); test: Locomotory activity of MPTP-treated parkinsonian marmosets (image analyser, small/medium/large movements); assay type: in vivo, Callithrix jacchus; parameters: Locomotory activity, small movements / Locomotory activity, small movements, Average ± S.E.M. / Locomotory activity, medium movements / Locomotory activity, large movements / Time passed in moving, small movements: unit not given here; conditions: for Time passed in moving, large movements, Average ± S.E.M. / Time passed in moving, medium movements, Average ± S.E.M. / Time passed in moving, small movements, Average ± S.E.M. / Time passed in moving, small movements / Time passed in moving, medium movements / Time passed in moving, large movements: 30 min after 1st daily L-DOPA
Description: On day 32, the animals are divided into 2 groups. […] The locomotory activity is determined by placing the animals in test cages (50 cm×83 cm×77 cm) which are equipped with 3 […] onto which the animals can jump as well as a Plexiglas door in front of which is placed a camera. […] The image is digitalized with a 800×600 definition with 256 levels of grey and the changes in pixels from one image to another are counted. This allows the locomotory activity to be classified into small, medium or large movements. […] The locomotory activity of the animals is measured during the exploration phase, that is to say immediately after they are placed in the test cage.

[2] = system: parkinsonian marmosets (MPTP); test: Dyskinesic score in MPTP-treated marmosets under chronic L-DOPA; assay type: in vivo, Callithrix jacchus; parameters: Total dyskinesic score, individual values / Total dyskinesic score, Average ± S.E.M.: scale not given here; conditions: for Total dyskinesic score, Average ± S.E.M. / Total dyskinesic score, individual values: L-DOPA alone (Group 1 controls, sucrose); for Total dyskinesic score, individual values: marmosets 1-3
Description: The marmosets have free access to water and have available each day 35 g of food rich in carbohydrates, proteins and vitamins mixed with water, milk and sugar and also fresh fruit.
All the animals receive 3 injections of 2 mg/kg of MPTP by the subcutaneous route, on days 1, 7 and 32. On day 32, the animals are divided into 2 groups.
The dyskinesic score is determined according to a number of parameters and each with a different degree of intensity: […]

[3] = 30 min after the 1st administration of L-DOPA (25 mg/kg p.o.), Group 1, all intervals of 1 h
[4] = 30 min after the 1st administration of L-DOPA (25 mg/kg p.o.), Group 1 marmosets 1-3, interval 11-20 min
[5] = 30 min after the 1st administration of L-DOPA (25 mg/kg p.o.), Group 1 marmosets 1-3, interval 31-40 min
[6] = 30 min after the 1st administration of L-DOPA (25 mg/kg p.o.), Group 1 marmosets 1-3, interval 41-50 min
[7] = 30 min after the 1st administration of L-DOPA (25 mg/kg p.o.), Group 1 marmosets 1-3, interval 51-60 min
[8] = L-DOPA alone (Group 1, sucrose), 10 days after L-DOPA, in s (unit assumed)
[9] = L-DOPA alone (Group 1, sucrose), 20 days after L-DOPA, in s (unit assumed)
[10] = day 57 after 1st MPTP, 30 min after 1st daily L-DOPA
[11] = day 57 after 1st MPTP, 2 h after 1st daily L-DOPA
[12] = day 60 after 1st MPTP, 30 min after 1st daily L-DOPA
[13] = day 60 after 1st MPTP, 2 h after 1st daily L-DOPA
[14] = day 67 after 1st MPTP, 30 min after 1st daily L-DOPA
[15] = day 67 after 1st MPTP, 2 h after 1st daily L-DOPA
[16] = day 104 after 1st MPTP, 30 min after 1st daily L-DOPA
[17] = day 104 after 1st MPTP, 2 h after 1st daily L-DOPA
[18] = riluzole 2 × 10 mg/kg + L-DOPA (Group 2), 10 days after L-DOPA
[19] = riluzole 2 × 10 mg/kg + L-DOPA (Group 2), 10 days after L-DOPA, marmosets 4-6, interval 21-30 min, 10 mg/kg, in s (unit assumed)
[20] = riluzole 2 × 10 mg/kg + L-DOPA (Group 2), 10 days after L-DOPA, marmosets 4-6, interval 31-40 min, 10 mg/kg, in s (unit assumed)
[21] = riluzole 2 × 10 mg/kg + L-DOPA (Group 2), 10 days after L-DOPA, marmosets 4-6, interval 51-60 min, 10 mg/kg, in s (unit assumed)
[22] = riluzole 2 × 10 mg/kg + L-DOPA (Group 2), 20 days after L-DOPA, in s (unit assumed)
[23] = riluzole 2 × 10 mg/kg + L-DOPA (Group 2), 20 days after L-DOPA, marmosets 4-6, interval 1-10 min, 10 mg/kg, in s (unit assumed)

Total dyskinesic score, Average ± S.E.M. [2, 10]: 6.7 ± 2.1
Total dyskinesic score, individual values [2, 10]: 4 and 11 and 5
Total dyskinesic score, Average ± S.E.M. [2, 11]: 6.0 ± 2.1
Total dyskinesic score, individual values [2, 11]: 3 and 10 and 5
Total dyskinesic score, Average ± S.E.M. [2, 12]: 9.0 ± 2.5
Total dyskinesic score, individual values [2, 12]: 4 and 11 and 12
Total dyskinesic score, Average ± S.E.M. [2, 13]: 8.3 ± 2.32
Total dyskinesic score, individual values [2, 13]: 4 and 9 and 12
Total dyskinesic score, Average ± S.E.M. [2, 14]: 10 ± 3.0
Total dyskinesic score, individual values [2, 14]: 4 and 14 and 12
Total dyskinesic score, Average ± S.E.M. [2, 15]: 10 ± 3.0
Total dyskinesic score, individual values [2, 15]: 4 and 13 (2×)
Total dyskinesic score, Average ± S.E.M. [2, 16]: 11 ± 3.8
Total dyskinesic score, individual values [2, 16]: 4 and 17 and 2
Total dyskinesic score, Average ± S.E.M. [2, 17]: 11 ± 3.0
Total dyskinesic score, individual values [2, 17]: 5 and 17 and 12
Dyskinesias (in words) ([2]; repeated L-DOPA 25 mg/kg oral, 3 times per day, days 57, 60, 67 and 104, maximum effect on day 104): produce dyskinesias
Compound: N[C@@H](Cc1ccc(O)c(O)c1)C(=O)O [L-DOPA, 3-(3,4-dihydroxyphenyl)-L-alanine]
Locomotory activity, large movements, Average ± S.E.M. [1, 3]: 334 + 23
Locomotory activity, medium movements, Average ± S.E.M. [1, 3]: 226 ± 13
Locomotory activity, small movements, Average ± S.E.M. [1, 3]: 40 ± 16
Locomotory activity, medium movements ([1]; 30 min after the 1st administration of L-DOPA (25 mg/kg p.o.), Group 1 marmosets 1-3, interval 1-10 min): 250 and 235 and 270
Locomotory activity, large movements [1, 4]: 350 and 385 and 275
Locomotory activity, medium movements [1, 4]: 240 and 190 and 290
Locomotory activity, large movements ([1]; 30 min after the 1st administration of L-DOPA (25 mg/kg p.o.), Group 1 marmosets 1-3, interval 21-30 min): 490 and 370 and 375
Locomotory activity, large movements [1, 5]: 290 and 230 and 335
Locomotory activity, medium movements [1, 5]: 255 and 355 and 205
Locomotory activity, large movements [1, 6]: 425 and 295 and 420
Locomotory activity, medium movements [1, 6]: 165 and 260
Locomotory activity, large movements [1, 7]: 350 and 330 and 365
Locomotory activity, medium movements [1, 7]: 215 and 240 and 200
Locomotory activity, small movements [1, 7]: 35 and 30
Effect on locomotory activity (in words) ([1]; L-DOPA after repeated treatment of 10 days and of 20 days): does not have or has little beneficial effect on the locomotory activity
Time passed in moving, large movements, Average ± S.E.M. [1, 8]: 171 ± 48
Time passed in moving, medium movements, Average ± S.E.M. [1, 8]: 160 ± 23
Time passed in moving, small movements, Average ± S.E.M. [1, 8]: 269 ± 47
Time passed in moving, small movements ([1]; L-DOPA alone (Group 1, sucrose), 10 days after L-DOPA, marmosets 1-3, interval 51-60 min): 205 and 225 and 240
Time passed in moving, medium movements ([1]; L-DOPA alone (Group 1, sucrose), 10 days after L-DOPA, marmosets 1-3, interval 51-60 min, in s (unit assumed)): 165 and 305 and 235
Time passed in moving, large movements, Average ± S.E.M. [1, 9]: 283 ± 50
Time passed in moving, medium movements, Average ± S.E.M. [1, 9]: 235 ± 37
Time passed in moving, small movements, Average ± S.E.M. [1, 9]: 83 ± 19
Effect on locomotory activity (in words) ([1]; acute administration of L-DOPA 25 mg/kg, 15 days after the 3rd injection of MPTP): increases the locomotory activity by decreasing the small movements and increasing the large movements

Compound: Nc1nc2ccc(OC(F)(F)F)cc2s1 [riluzole, 2-amino-6-trifluoromethoxybenzo-thiazole]
Effect on locomotory activity (in words) ([1]; riluzole 10 mg/kg oral, twice per day for 72 days, after 10 and 20 days of treatment with L-DOPA): capable of improving the locomotory activity
Time passed in moving, large movements, Average ± S.E.M. [1, 18]: 410 ± 25^+++
Time passed in moving, small movements, Average ± S.E.M. [1, 18]: 57 ± 16^+++
Time passed in moving, medium movements, Average ± S.E.M. ([1]; riluzole 2 × 10 mg/kg + L-DOPA (Group 2), 10 days after L-DOPA, in s (unit assumed)): 134 ± 13
Time passed in moving, small movements ([1]; riluzole 2 × 10 mg/kg + L-DOPA (Group 2), 10 days after L-DOPA, marmosets 4-6, interval 1-10 min): 5
Time passed in moving, large movements ([1]; riluzole 2 × 10 mg/kg + L-DOPA (Group 2), 10 days after L-DOPA, marmosets 4-6, interval 1-10 min, 10 mg/kg, in s (unit assumed)): 560 and 495 and 520
Time passed in moving, large movements ([1]; riluzole 2 × 10 mg/kg + L-DOPA (Group 2), 10 days after L-DOPA, marmosets 4-6, interval 11-20 min, 10 mg/kg, in s (unit assumed)): 565 and 455 and 370
Time passed in moving, large movements [1, 19]: 540 and 355 and 435
Time passed in moving, medium movements [1, 19]: 60 and 120 and 115
Time passed in moving, large movements [1, 20]: 460 and 240 and 385
Time passed in moving, medium movements [1, 20]: 140 and 215 and 190
Time passed in moving, medium movements ([1]; riluzole 2 × 10 mg/kg + L-DOPA (Group 2), 10 days after L-DOPA, marmosets 4-6, interval 41-50 min, 10 mg/kg, in s (unit assumed)): 155 and 205 and 175
Time passed in moving, large movements [1, 21]: 430 and 265 and 310
Time passed in moving, medium movements [1, 21]: 135 and 125 and 190
Time passed in moving, medium movements, Average ± S.E.M. ([1]; riluzole 2 × 10 mg/kg + L-DOPA (Group 2), 20 days after L-DOPA): 148 ± 13^+
Time passed in moving, large movements, Average ± S.E.M. [1, 22]: 365 ± 37
Time passed in moving, small movements, Average ± S.E.M. [1, 22]: 67 ± 30
Time passed in moving, large movements [1, 23]: 445 and 335 and 490
Time passed in moving, medium movements [1, 23]: 155 and 140 and 80
Time passed in moving, medium movements ([1]; riluzole 2 × 10 mg/kg + L-DOPA (Group 2), 20 days after L-DOPA, marmosets 4-6, interval 51-60 min, 10 mg/kg, in s (unit assumed)): 90 and 180 and 105
